According to the supplement of paper PMC10307832:

What was measured:
Assay in all cases: relative viability (nuclei count vs DMSO), 5 days (fraction); higher = more cells survive
[1] = compound: COc1cc2c(Oc3ccc(NC(=O)C4(C(=O)Nc5ccc(F)cc5)CC4)cc3F)ccnc2cc1OCCCN1CCOCC1 [Foretinib] (anchor plate); conditions: 0.25 µM
In short: (§1)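 Acceptance criteria were a control CV below 25% and at least one doubling per plate. Lung cancer cell lines in 1536-well plates got five library-drug doses (not always all listed) √10 apart by pinning and were left 5 days with no medium change. Viability divides treated-well nuclei by vehicle-well nuclei and is the median across plates. Nuclei were counted by MetaXpress from 4× Hoechst images.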

[2] = compound: C1=CC2=C(C=CC(=C2)C=C3C(=O)NC(=NCC4=CC=CS4)S3)N=C1 [RO-3306]
In short: as §1

[3] = compound: O=S(=O)(c1ccccc1)N(CC(F)(F)F)c1ccc(C(O)(C(F)(F)F)C(F)(F)F)cc1
In short: as §1

[4] = compound: C1=CC2=C(C=CC(=C2)C=C3C(=O)NC(=NCC4=CC=CS4)S3)N=C1 [RO-3306] + C[C@@H](Oc1cc(-c2cnn(C3CCNCC3)c2)cnc1N)c1c(Cl)ccc(F)c1Cl [Crizotinib] (partner 1 µM)
In short: (§2)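 Each reported value is a median over duplicate plates. It expresses relative viability: treated-well nuclei count divided by vehicle-well nuclei count. Lung cancer cell lines in 1536-well plates were dosed by pin tool a day after seeding, alone with one drug or with a fixed anchor-drug dose plus five library-drug doses (not always all listed) in √10 steps, and nuclei were counted after 5 days.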

[5] = compound: C1=CC2=C(C=CC(=C2)C=C3C(=O)NC(=NCC4=CC=CS4)S3)N=C1 [RO-3306] + CS(=O)(=O)N1CCN(Cc2cc3nc(-c4cccc5[nH]ncc45)nc(N4CCOCC4)c3s2)CC1 [Pictilisib] (partner 1 µM)
In short: as §2

Row | Cell Line | relative viability [1] | relative viability ([2]; 0.01 µM) | relative viability ([2]; 0.03162 µM) | relative viability ([2]; 0.1 µM) | relative viability ([2]; 0.3162 µM) | relative viability ([2]; 1 µM) | relative viability ([3]; 0.8 µM) | relative viability ([3]; 2.53 µM) | relative viability ([3]; 8 µM) | relative viability ([4]; first compound 0.01 µM) | relative viability ([4]; first compound 0.03162 µM) | relative viability ([4]; first compound 0.1 µM) | relative viability ([4]; first compound 0.3162 µM) | relative viability ([4]; first compound 1 µM) | relative viability ([5]; first compound 0.01 µM) | relative viability ([5]; first compound 0.03162 µM) | relative viability ([5]; first compound 0.1 µM) | relative viability ([5]; first compound 0.3162 µM) | relative viability ([5]; first compound 1 µM)
1 | NCI-H23 | 0.969 | 0.958 | 0.715 | 0.837 | 1.03 | 1.02 | 1.09 | 1.07 | 1.15 | 0.493 | 0.304 | 0.462 | 0.56 | 0.425 | 0.507 | 0.468 | 0.433 | 0.451 | 0.433
2 | NCI-H2405 | 1.01 | 1 | 0.949 | 0.995 | 1.02 | 0.906 | 1.03 | 0.987 | 0.945 | 0.863 | 0.786 | 0.864 | 0.828 | 0.794 | 0.369 | 0.433 | 0.496 | 0.534 | 0.427
3 | HARA | 0.959 | 0.96 | 0.909 | 0.886 | 0.985 | 1.03 | 0.933 | 0.803 | 0.962 | 1.05 | 0.916 | 1.04 | 1.27 | 1.01 | 0.367 | 0.247 | 0.457 | 0.394 | 0.358
4 | HCC-44 | – | 0.985 | 1 | 1.02 | 0.957 | 0.901 | 0.98 | 0.988 | 0.97 | 0.825 | 0.83 | 0.881 | 0.835 | 0.818 | 0.581 | 0.524 | 0.619 | 0.689 | 0.557
5 | CAL-12T | 1.13 | 1.01 | 0.884 | 0.906 | 0.977 | 1.07 | 0.88 | 0.804 | 0.811 | 0.57 | 0.49 | 0.531 | 0.63 | 0.508 | 0.359 | – | – | 0.411 | 0.462
6 | NCI-H838 | 1.03 | 1.03 | 0.908 | 0.992 | 1.07 | 0.95 | 1.12 | 0.962 | 1.02 | 0.957 | 0.765 | 0.837 | 0.93 | 0.607 | 0.411 | 0.34 | 0.432 | 0.505 | 0.393
7 | LK-2 | 1.18 | 1.07 | 0.855 | 0.922 | 1.17 | 1.02 | 1.06 | 0.894 | 0.98 | 0.232 | 0.239 | 0.216 | 0.201 | 0.234 | 0.482 | 0.499 | 0.64 | 0.681 | 0.534
8 | NCI-H358 | 0.694 | 1.13 | 0.779 | 0.902 | 0.947 | 0.766 | 0.815 | 0.796 | 0.826 | 0.612 | 0.618 | 0.439 | 0.446 | 0.375 | 0.308 | 0.387 | 0.319 | 0.321 | 0.31
9 | SW 1573 | 0.879 | 1.02 | 0.781 | 0.945 | 1.05 | 0.979 | 1.17 | 1.01 | 0.884 | 0.879 | 0.62 | 0.771 | 0.865 | 0.606 | 0.536 | 0.406 | 0.534 | 0.534 | 0.39
10 | LCLC-103H | 0.805 | 1.01 | 0.935 | 1.02 | 0.998 | 0.923 | 1.09 | 0.966 | 1.07 | 1.1 | 1.01 | 1.01 | 1.05 | 0.951 | 0.461 | 0.556 | 0.561 | 0.655 | 0.608
11 | HCC-827 | 0.976 | 1.02 | 0.955 | 1.03 | 1.03 | 1.06 | 1.1 | 1.02 | 0.975 | 0.95 | 0.866 | 0.943 | 0.903 | 0.972 | 0.913 | 0.983 | 0.878 | 1.07 | 1.05
12 | NCI-H1666 | 0.977 | 0.962 | 0.904 | 0.938 | 0.941 | 0.885 | 0.939 | 0.925 | 0.827 | 1.04 | 0.869 | 0.915 | 0.839 | 0.89 | 0.451 | 0.407 | 0.389 | 0.35 | 0.406
13 | NCI-H460 | 1 | 1.05 | 0.956 | 0.983 | 1.02 | 1.04 | 1.06 | 0.949 | 0.943 | 0.958 | – | 1.02 | 0.9 | 0.436 | 0.388 | 0.374 | 0.371 | 0.329 | 0.32
14 | NCI-H2087 | 1.06 | 1.11 | 0.918 | 1.1 | 1.04 | 0.991 | 1.11 | 0.993 | 0.909 | 1 | 0.902 | 1.04 | 0.893 | 0.945 | 0.988 | 0.698 | 1.01 | 0.974 | 0.836
15 | NCI-H2085 | 1.01 | 0.985 | 0.936 | 0.98 | 1.05 | 0.995 | 0.967 | 0.908 | 0.929 | 0.677 | 0.715 | 0.774 | 0.775 | 0.791 | 0.388 | 0.467 | 0.467 | 0.492 | 0.479
16 | NCI-H1299 | 1.06 | 1.06 | 1 | 1.03 | 1.04 | 1.09 | 1.01 | 1.02 | 0.952 | 1.02 | 0.943 | 0.998 | 0.988 | 0.991 | 0.873 | 0.854 | 0.833 | 0.796 | 0.649

Row | Cell Line | relative viability [1] | relative viability ([2]; 0.01 µM) | relative viability ([2]; 0.03162 µM) | relative viability ([2]; 0.1 µM) | relative viability ([2]; 0.3162 µM) | relative viability ([2]; 1 µM) | relative viability ([3]; 0.8 µM) | relative viability ([3]; 2.53 µM) | relative viability ([3]; 8 µM) | relative viability ([4]; first compound 0.01 µM) | relative viability ([4]; first compound 0.03162 µM) | relative viability ([4]; first compound 0.1 µM) | relative viability ([4]; first compound 0.3162 µM) | relative viability ([4]; first compound 1 µM) | relative viability ([5]; first compound 0.01 µM) | relative viability ([5]; first compound 0.03162 µM) | relative viability ([5]; first compound 0.1 µM) | relative viability ([5]; first compound 0.3162 µM) | relative viability ([5]; first compound 1 µM)
17 | ChaGo-K-1 | 0.921 | 1.03 | 0.933 | 1.01 | 1.04 | 0.699 | 1.14 | 0.998 | 1.06 | 1.2 | 1.03 | 1.14 | 0.858 | 0.818 | 0.692 | 0.701 | 0.449 | 0.69 | 0.49
18 | A-427 | 1.08 | 1.06 | 0.94 | 1 | 1.02 | 0.574 | 1.08 | 0.929 | 1.21 | 1.02 | 0.883 | 0.904 | 0.955 | 0.845 | 0.707 | 0.735 | 0.638 | 0.781 | 0.483
19 | NCI-H2170 | 1.01 | 1.06 | 0.946 | 0.952 | 1.01 | 0.991 | 1.08 | 0.964 | 0.913 | 1.34 | 0.758 | 1.15 | 1.24 | 1.13 | 0.292 | 0.303 | 0.305 | 0.312 | 0.334
20 | NCI-H441 | 0.994 | 1.09 | 0.795 | 1.11 | 1.13 | 1.04 | 1.12 | 0.896 | 0.941 | 0.824 | 0.424 | 0.591 | 0.867 | 0.485 | 0.491 | 0.332 | 0.387 | 0.607 | 0.451
21 | NCI-H2347 | 0.902 | 1.19 | 0.882 | 1.05 | 1 | 1 | 1.08 | 1.01 | 1.04 | 0.675 | 0.691 | 0.718 | 0.7 | 0.656 | 0.715 | 0.477 | 0.642 | 0.881 | 0.668
22 | NCI-H2009 | 1.22 | 1.03 | 0.955 | 0.983 | 1.02 | 1 | 0.977 | 0.862 | 0.891 | 1.05 | 0.976 | 1.02 | 1.07 | 1.04 | 0.96 | 0.712 | 0.806 | 0.753 | 0.636
23 | NCI-H1915 | 1.1 | 1.05 | 0.944 | 0.98 | 0.992 | 0.536 | 1.06 | 0.98 | 1.08 | 1.07 | 0.783 | 0.882 | 0.903 | 0.876 | 0.919 | 0.827 | 0.878 | 0.917 | 0.615
24 | SW 900 | 0.974 | 0.917 | 0.697 | 0.705 | 0.943 | 0.785 | 0.934 | 0.729 | 0.994 | – | – | – | – | – | – | – | – | – | –
25 | NCI-H2342 | 1.05 | 1.02 | 0.865 | 0.941 | 0.914 | 0.932 | 1.36 | 0.968 | 0.938 | – | – | – | – | – | – | – | – | – | –
26 | NCI-H1793 | 0.741 | 1.09 | 0.694 | 0.865 | 0.993 | 1.12 | 0.758 | 0.747 | 0.785 | – | – | – | – | – | 0.402 | 0.276 | 0.34 | 0.258 | 0.389
27 | NCI-H1648 | – | 0.863 | – | 0.877 | 0.858 | 1.01 | 0.793 | 0.58 | 0.518 | – | – | – | – | – | – | – | – | – | –
28 | NCI-H522 | – | 1.09 | 0.867 | 0.827 | 0.875 | 0.962 | 1.06 | 0.954 | 1.15 | – | – | – | – | – | – | – | – | – | –
29 | NCI-H1623 | 0.899 | 0.99 | 0.909 | 0.958 | 1.08 | 0.844 | 0.928 | 0.836 | 0.856 | – | – | – | – | – | – | – | – | – | –
30 | NCI-H1792 | – | 0.813 | – | 0.824 | 0.908 | 0.782 | 0.79 | 0.724 | 0.858 | 1.25 | – | 0.989 | 0.985 | 0.529 | 0.288 | – | 0.288 | 0.287 | 0.224
31 | NCI-H1395 | 1 | 0.895 | 0.869 | 0.729 | 0.887 | 0.707 | 0.867 | 0.894 | 0.914 | – | – | – | – | – | 0.589 | 0.911 | 0.547 | 0.644 | 0.753
